Results reported in patent US11059771B2, “Warming sensation compounds” (TAKASAGO INTERNATIONAL CORPORATION, priority 2016, dated 2021).

Experiments:
mouth = test: Perceived warming sensations in the mouth, "swish and spit" protocol (Example 15); type: in vivo, human; conditions: 1% by weight in ethanol, diluted at 10 ppm in water, one comment per participant (5 expert evaluators)
Description: A warming composition was prepared by adding 1% by weight of the warming agent of Example 1 to ethanol. The resulting warming composition was diluted at 10 ppm in water. The diluted warming composition was evaluated for its perceived warming sensations in the mouth by 5 expert evaluators following a “swish and spit” protocol, in which the sample is placed into a small tasting cup, taken into the mouth, and swished around, then the sample is spit back into the original tasting cup and disposed of. Additional compounds were evaluated and compared for perceived warming sensations in the mouth by expert evaluators following the “swish and spit” protocol.

expert panelists = test: Warming evaluation in milk chocolate by expert panelists (Example 17); type: in vivo, human; conditions: 5% cut in MCT at 0.3% in milk chocolate; for Average Warming Intensity (1-9): 1=none, 9=very strong, control without warming compound 1.7; for Onset: panelists chose slow, medium or fast
panelists = test: Warming sensation in lotion, panel evaluation (Example 20); type: in vivo, human; conditions: for Overall warming intensity (1 = no effect, 5 = extremely warming): 0.5% loading in in-house lotion base, 5 panelists, control 1.25
Excerpt: All materials were made with 0.5% loading of active compound in an in-house lotion base except the control, which contains no active material. There were a total of 5 panelists to evaluate the lotion samples.

SMILES | Comments (perceived warming sensations in the mouth) (mouth) | Average Warming Intensity (1-9) (expert panelists; 10 expert panelists) | Character/Comments (expert panelists; 10 expert panelists, listed as compound C) | Onset (expert panelists) | Heat sensation when working out (sweating) after application (panelists; 0.5% in lotion base, noticed by an evaluator) | Overall warming intensity (1 = no effect, 5 = extremely warming) (panelists) | melting point [°C]
COc1cc(CC(=O)OCCOc2ccccc2)ccc1O [Example 1, 2-Phenoxyethyl 2-(4-hydroxy-3-methoxyphenyl)acetate] | Immediate burn, intense but fades really quickly | 6.8 | pleasant linger, without an irritating burn | Fast (“fast onset” relates to the onset of warming sensation in less than about 10 seconds (i.e., quick)) | the heat sensation came back at the same intensity as first described at initial application | 2.90 | 56
COc1ccc(CC(C)COC(=O)Cc2ccc(O)c(OC)c2)cc1 (stereo not shown) [Example 5, 3-(4-methoxyphenyl)-2-methylpropyl 2-(4-hydroxy-3-methoxyphenyl)acetate] | – | 2.25 | – | Slow (“slow onset” relates to the onset of warming sensation occurring after about 15 seconds (i.e., delayed)) | – | 1.80 | –
COc1cc(CC(=O)OC/C=C(\C)CCC=C(C)C)ccc1O [Example 13, (E)-3,7-Dimethylocta-2,6-dien-1-yl 2-(4-hydroxy-3-methoxyphenyl)acetate] | – | 2.7 | – | Slow (“slow onset” relates to the onset of warming sensation occurring after about 15 seconds (i.e., delayed)) | – | 2.70 | –
